The source of these data is patent EP0185961A2, “1-Phenyl-imidazole-5-carboxylic acid derivatives, process for their preparation and their use as growth regulators” (HOECHST AKTIENGESELLSCHAFT, priority 1984, dated 1986).

For one data set, the system named is Roggen. Description: Growth inhibition in cereals, greenhouse tray test, sprayed at 3-leaf stage. The data set is classed as in vivo. Particulars: % of growth increment of untreated controls, read-out: Wuchsshemmung in % bei Roggen; for pest or weed control at 1250 g/ha: 1,25 kg/ha; for pest or weed control at 2500 g/ha: 2,5 kg/ha. The source says:
(§1) In Schalenversuchen im Gewächshaus werden junge Getreidepflanzen (Weizen, Gerste, Roggen) im 3-Blattstadium mit erfindungsgemäßen Verbindungen in verschiedenen Wirkstoffkonzentrationen (kg/ha) tropfnaß gespritzt. […]

Another data set concerns Weizen. The data set is described as above. The data set is classed as in vivo. Particulars: % of growth increment of untreated controls (100% = growth standstill), read-out: Wuchsshemmung in % bei Weizen; for pest or weed control at 1250 g/ha: 1,25 kg/ha; for pest or weed control at 2500 g/ha: 2,5 kg/ha.
Description: as §1

The next data set deals with Gerste. The data set is described as above. In kind it is in vivo. The conditions noted are these: % of growth increment of untreated controls, read-out: Wuchsshemmung in % bei Gerste; for pest or weed control at 1250 g/ha: 1,25 kg/ha; for pest or weed control at 2500 g/ha: 2,5 kg/ha. An excerpt:
(§2) In Schalenversuchen im Gewächshaus werden junge Getreidepflanzen (Weizen, Gerste, Roggen) im 3-Blattstadium mit erfindungsgemäßen Verbindungen in verschiedenen Wirkstoffkonzentrationen (kg/ha) tropfnaß gespritzt.
(§3) Es wird außerdem die phytotoxische Wirkung der Verbindung beobachtet.

Data set [1] deals with Getreidepflanzen (Weizen, Gerste, Roggen). The data set is described as follows: Phytotoxic effect observed in the cereal growth inhibition test. The data set is classed as in vivo. Particulars: cereals; one cell for 2,5 and 1,25 kg/ha.
Description: as §2, §3

The subject of data set [2] is Reispflanzen. Particulars: in vivo.
Description: (§4) Reispflanzen werden in Kleinparzellen (2 m x 2 m) angezogen und im Stadium der maximalen Bestockung mit erfindungsgemäßen Verbindungen behandelt. Die Substanzen werden sowohl durch Spritzung appliziert als auch in das Wasser gegeben.
(§5) 3 Wochen nach der Behandlung wird bei allen Pflanzen der Zuwachs gemessen und die Wuchshemmung in % des Zuwachses der Kontrollpflanzen berechnet. Es wird außerdem auf eine mögliche phytotoxische Wirkung der Verbindungen geachtet.
(§6) Die Wuchshemmung wird als prozentualer Wert ermittelt, wobei 100% den Stillstand des Wachstums und 0% ein Wachstum entsprechend dem der unbehandelten Kontrollpflanzen bedeuten.
Data set [3] deals with Sojabohnen. The conditions noted are these: in vivo.
Description: (§7) Etwa 10 cm große Sojabohnen werden mit den Wirkstoffzubereitungen tropfnaß bespritzt. Nach 3 Wochen wird bonitiert.
as §6
The subject of data set [4] is Sojabohnen. Description: Growth inhibition in soybeans. Particulars: Glycine max, 504 h, read-out: Wuchsshemmung (%).
Description: as §7, §6
Data set [5] deals with Reispflanzen. The data set is described as follows: Growth inhibition in paddy rice, small plots. Particulars: Oryza sativa, 504 h, read-out: Wuchsshemmung (%).
Description: as §4, §5, §6

As for `CCc1cccc(CC)c1-n1cncc1C(=O)NN(C)C` [Beispiel 66], the pest or weed control at 1250 g/ha was 18% in the data set on Roggen, 14% with Weizen, 19% with Gerste and 21% in the data set with Reispflanzen [5]. The pest or weed control at 2500 g/ha with Roggen worked out at 25%; with Weizen, 22%; in the data set with Gerste, 31%; in the data set with Sojabohnen [4], 18%. Also, the “Phytotox. Wirkung” value (in data set [1]; in the data set with Reispflanzen [2]; with Sojabohnen [3]) was “keine Schäden” throughout. Further, the pest or weed control at 620 g/ha in the data set on Reispflanzen [5] amounted to 12%.
On to `CCc1cccc(CC)c1-n1cncc1C(=O)NO` [Beispiel 68], for which the pest or weed control at 1250 g/ha with Roggen is 21%; in the data set on Weizen, 20%; with Gerste it was 21%; in the data set on Reispflanzen [5] it was 25%. The pest or weed control at 2500 g/ha in the data set with Roggen came out at 27%; in the data set on Weizen it was 24%; with Gerste it was 34%; with Sojabohnen [4], 26%. In addition, the “Phytotox. Wirkung” value (in data set [1]; in the data set on Reispflanzen [2]; in the data set with Sojabohnen [3]) was “keine Schäden” each time. Further, the pest or weed control at 620 g/ha with Reispflanzen [5] was 18%.
For `CCc1cccc(CC)c1-n1cncc1CO` [Beispiel 12, 1-(2,6-Diethylphenyl)-5-hydroxymethyl-imidazol], the pest or weed control at 1250 g/ha in the data set with Roggen worked out at 17%; in the data set on Weizen, 11%; with Gerste, 17%; with Reispflanzen [5] it was 21%. Moreover, the pest or weed control at 2500 g/ha in the data set with Roggen is 24%; with Weizen, 23%; in the data set on Gerste, 33%; in the data set on Sojabohnen [4], 21%. Further, the “Phytotox. Wirkung” value (in data set [1]; in the data set on Reispflanzen [2]; with Sojabohnen [3]) was “keine Schäden” each time. In the data set on Reispflanzen [5], the pest or weed control at 620 g/ha worked out at 13%.
With `CCc1cccc(CC)c1-n1cncc1C(=O)ON=C1CCCCC1` [Beispiel 51], the pest or weed control at 1250 g/ha is 20% in the data set with Roggen, 16% with Weizen, 18% in the data set on Gerste and 26% in the data set with Reispflanzen [5]. Moreover, the pest or weed control at 2500 g/ha was 27% with Roggen, 25% in the data set on Weizen, 37% in the data set with Gerste and 24% in the data set on Sojabohnen [4]. Further, the “Phytotox. Wirkung” value (in data set [1]; in the data set with Reispflanzen [2]; in the data set with Sojabohnen [3]) was “keine Schäden” throughout. Moreover, the pest or weed control at 620 g/ha with Reispflanzen [5] was found to be 19%.
As for `CCc1cccc(CC)c1-n1cncc1C(=O)NCCO` [Beispiel 3, N-(2-Hydroxyethyl)-1-(2,6-diethylphenyl)-imidazol-5-carb-oxyamid], the pest or weed control at 1250 g/ha in the data set with Roggen was found to be 20%; with Weizen it was 13%; in the data set on Gerste it was 17%; with Reispflanzen [5] it was 21%. Besides, the pest or weed control at 2500 g/ha in the data set with Roggen is 26%; in the data set with Weizen, 22%; in the data set on Gerste, 35%; with Sojabohnen [4] it was 21%. Further, the “Phytotox. Wirkung” value (in data set [1]; in the data set with Reispflanzen [2]; with Sojabohnen [3]) was “keine Schäden” in each case. Moreover, the pest or weed control at 620 g/ha in the data set with Reispflanzen [5] came out at 16%.
For the molecule `CCc1cccc(CC)c1-n1cncc1C(=O)n1cncn1` [Beispiel 76], the pest or weed control at 1250 g/ha was 15% in the data set on Roggen, 13% in the data set with Weizen, 17% in the data set on Gerste and 19% in the data set with Reispflanzen [5]. Also, the pest or weed control at 2500 g/ha in the data set with Roggen is 23%; in the data set on Weizen, 21%; in the data set on Gerste, 27%; with Sojabohnen [4], 21%. Also, the “Phytotox. Wirkung” value (in data set [1]; in the data set on Reispflanzen [2]; in the data set with Sojabohnen [3]) was “keine Schäden” each time. In addition, in the data set on Reispflanzen [5], the pest or weed control at 620 g/ha was determined as 14%.
For the molecule `CCc1cccc(CC)c1-n1cncc1C(=O)OC1CCCCC1` [Beispiel 36], the pest or weed control at 1250 g/ha with Roggen was determined as 13%; with Weizen it was 10%; in the data set with Gerste, 17%; in the data set with Reispflanzen [5], 21%. For the same molecule, the pest or weed control at 2500 g/ha in the data set on Roggen was 23%; in the data set with Weizen it was 19%; in the data set on Gerste, 33%; in the data set with Sojabohnen [4] it was 19%. Also, the “Phytotox. Wirkung” value (in data set [1]; in the data set on Reispflanzen [2]; in the data set on Sojabohnen [3]) was “keine Schäden” throughout. Also, the pest or weed control at 620 g/ha in the data set with Reispflanzen [5] was determined as 14%.
For the molecule `CCc1cccc(CC)c1-n1cncc1C(=O)ON=C(C)C1CC1` [Beispiel 45], the pest or weed control at 1250 g/ha with Roggen is 15%; in the data set on Weizen, 11%; in the data set on Gerste, 15%; with Reispflanzen [5] it was 19%. Further, the pest or weed control at 2500 g/ha in the data set on Roggen was 22%; in the data set on Weizen it was 19%; in the data set with Gerste, 32%; with Sojabohnen [4] it was 18%. In addition, the “Phytotox. Wirkung” value (in data set [1]; in the data set on Reispflanzen [2]; with Sojabohnen [3]) was “keine Schäden” in each case. Moreover, the pest or weed control at 620 g/ha in the data set on Reispflanzen [5] amounted to 13%.
Regarding `CCc1cccc(CC)c1-n1cncc1C(=O)ON1C(=O)c2ccccc2C1=O` [Beispiel 2, Pthalimido-1-(2,6-diethylphenyl)-imidazol-5-carboxylat], the pest or weed control at 1250 g/ha stood at 21% in the data set with Roggen, 12% in the data set with Weizen, 18% with Gerste and 22% with Reispflanzen [5]. For the same molecule, the pest or weed control at 2500 g/ha with Roggen was 27%; in the data set with Weizen, 23%; in the data set on Gerste, 37%; in the data set on Sojabohnen [4], 20%. In addition, the “Phytotox. Wirkung” value (in data set [1]; in the data set on Reispflanzen [2]; in the data set on Sojabohnen [3]) was “keine Schäden” throughout. Moreover, in the data set with Reispflanzen [5], the pest or weed control at 620 g/ha was 25%.
In the case of `CCc1cccc(CC)c1-n1cncc1-c1nc(C)no1` [Beispiel 7, 1-(2,6-Diethylphenyl)-5-(3-methyl-1,2,4-oxdiazol-5-yl)-imidazol], the pest or weed control at 1250 g/ha stood at 21% in the data set with Roggen, 15% with Weizen, 19% with Gerste and 24% in the data set on Reispflanzen [5]. Besides, the pest or weed control at 2500 g/ha in the data set on Roggen amounted to 28%; with Weizen, 24%; in the data set on Gerste it was 39%; in the data set with Sojabohnen [4], 26%. For the same molecule, the “Phytotox. Wirkung” value (in data set [1]; in the data set with Reispflanzen [2]; in the data set with Sojabohnen [3]) was “keine Schäden” in each case. The pest or weed control at 620 g/ha in the data set on Reispflanzen [5] stood at 15%.
